Measured values taken from patent US10626144B2, “Peptide derivatives and uses thereof” (Nosopharm, priority 2014, dated 2020).
Numbered stars: 1 amine (or outer) side, 2 acyl side, 3 side chain; on linkers, the order of the positions; unused ones are H or OH. Square brackets hold non-standard residues; d marks the D form. Peptide text beside a SMILES is read from it. * marks the point of attachment. Phe(3-CF3) = N[C@@H](Cc1cccc(C(F)(F)F)c1)C(=O)O; Phe(3-CONH2) = NC(=O)c1cccc(C[C@H](N)C(=O)O)c1; Pro(trans-4-F) = O=C(O)[C@@H]1C[C@@H](F)CN1; X6 = NC[C@@H](O)[C@@H](N[*:1])C(=O)[*:2]; Phe(2-Cl) = N[C@@H](Cc1ccccc1Cl)C(=O)O; Dab(3S-OH) = NC[C@H](O)[C@H](N)C(=O)O; Phe(2-F) = N[C@@H](Cc1ccccc1F)C(=O)O; Gly(cPent) = N[C@H](C(=O)O)C1CCCC1; ΔZArg = N=C(N)NCC/C=C(\N)C(=O)O; dOrn = NCCC[C@@H](N)C(=O)O; Orn = NCCC[C@H](N)C(=O)O; Dab = NCC[C@H](N)C(=O)O; NH(CH2)5NH2 = NCCCCCN*; NH(CH2)4NH2 = NCCCCN*

Experiments:
Experiment in all cases: MIC, broth microdilution (CLSI), reference strain
Conditions in all cases: CAMHB
[1] = test system: Pseudomonas aeruginosa ATCC 27853
[2] = test system: Staphylococcus aureus ATCC 13709
[3] = test system: Escherichia coli ATCC 25922
[4] = test system: Acinetobacter baumannii ATCC 19606

Row | Pa: MIC Pseudomonas aeruginosa ATCC 27853 [1] | Sa: MIC Staphylococcus aureus ATCC 13709 [2] | Ec: MIC Escherichia coli ATCC 25922 [3] | Ab: MIC Acinetobacter baumannii ATCC 19606 [4] | SMILES
1 | − (>32 μg/mL) | ++ (≤8 μg/mL) | + (≤32 μg/mL) | − (>32 μg/mL) | N=C(N)NCC/C=C(\NC(=O)[C@H](CCCCN)NC(=O)[C@H](Cc1cnc[nH]1)NC(=O)[C@@H]1CCCN1C(=O)[C@@H](CCCN)NC(=O)CNC(=O)[C@@H](NC(=O)[C@@H](NC(=O)[C@@H](N)CCCCN)[C@@H](O)CN)C1CCCC1)C(N)=O [220.1] (H-K[Dab(3S-OH)][Gly(cPent)]G[dOrn]PHK[ΔZArg]-NH2)
2 | − (>32 μg/mL) | + (≤32 μg/mL) | + (≤32 μg/mL) | − (>32 μg/mL) | N=C(N)NCC/C=C(\NC(=O)[C@H](CCCCN)NC(=O)[C@H](Cc1cnc[nH]1)NC(=O)[C@@H]1CCCN1C(=O)[C@@H](CCCN)NC(=O)CNC(=O)[C@H](CO)NC(=O)[C@@H](NC(=O)[C@@H](N)CCCCN)[C@@H](O)CN)C(=O)O [26.2] (H-K[Dab(3S-OH)]SG[dOrn]PHK[ΔZArg]-OH)
3 | − (>32 μg/mL) | ++ (≤8 μg/mL) | ++ (≤8 μg/mL) | − (>32 μg/mL) | N=C(N)NCC/C=C(\NC(=O)[C@H](CCCCN)NC(=O)[C@H](Cc1cccc(C(N)=O)c1)NC(=O)[C@@H]1CCCN1C(=O)[C@@H](CCCN)NC(=O)CNC(=O)[C@H](CCCN)NC(=O)[C@@H](NC(=O)[C@@H](N)CCCCN)[C@@H](O)CN)C(=O)O [211.3] (H-K[Dab(3S-OH)][Orn]G[dOrn]P[Phe(3-CONH2)]K[ΔZArg]-OH)
4 | − (>32 μg/mL) | + (≤32 μg/mL) | − (>32 μg/mL) | − (>32 μg/mL) | N=C(N)NCC/C=C(\NC(=O)[C@H](CCCCN)NC(=O)[C@H](Cc1cnc[nH]1)NC(=O)[C@@H]1CCCN1C(=O)[C@@H](CCCN)NC(=O)CNC(=O)[C@H](Cc1cnc[nH]1)NC(=O)[C@@H](NC(=O)[C@@H](N)CCCCN)[C@@H](O)CN)C(=O)O [214.2] (H-K[Dab(3S-OH)]HG[dOrn]PHK[ΔZArg]-OH)
5 | − (>32 μg/mL) | ++ (≤8 μg/mL) | + (≤32 μg/mL) | − (>32 μg/mL) | N=C(N)NCC/C=C(\NC(=O)[C@H](CCCCN)NC(=O)[C@H](Cc1cnc[nH]1)NC(=O)[C@@H]1CCCN1C(=O)[C@@H](CCCN)NC(=O)CNC(=O)[C@H](CCCCN)NC(=O)[C@@H](NC(=O)[C@@H](N)CCCCN)[C@@H](O)CN)C(=O)O [215.1] (H-K[Dab(3S-OH)]KG[dOrn]PHK[ΔZArg]-OH)
6 | ++ (≤8 μg/mL) | ++ (≤8 μg/mL) | ++ (≤8 μg/mL) | + (≤32 μg/mL) | N=C(N)NCC/C=C(\NC(=O)[C@H](CCCCN)NC(=O)[C@H](Cc1cnc[nH]1)NC(=O)[C@@H]1CCCN1C(=O)[C@@H](CCCN)NC(=O)CNC(=O)[C@H](CO)NC(=O)[C@@H](NC(=O)[C@@H](N)CCCCN)[C@@H](O)CN)C(=O)N[C@@H](CCCCN)C(=O)NCCCCN [26.1] (H-K[Dab(3S-OH)]SG[dOrn]PHK[ΔZArg]K-{NH(CH2)4NH2})

Second part, the compound before the results:

Row | SMILES | Pa: MIC Pseudomonas aeruginosa ATCC 27853 [1] | Sa: MIC Staphylococcus aureus ATCC 13709 [2] | Ec: MIC Escherichia coli ATCC 25922 [3] | Ab: MIC Acinetobacter baumannii ATCC 19606 [4]
7 | N=C(N)NCC/C=C(\NC(=O)[C@H](CCCCN)NC(=O)[C@H](Cc1cnc[nH]1)NC(=O)[C@@H]1C[C@@H](F)CN1C(=O)[C@@H](CCCN)NC(=O)CNC(=O)[C@@H](NC(=O)[C@@H](NC(=O)[C@@H](N)CCCCN)[C@@H](O)CN)[C@@H](O)CN)C(=O)N[C@@H](CCCCN)C(=O)NCCCCN [22.13] (H-K[Dab(3S-OH)][Dab(3S-OH)]G[dOrn][Pro(trans-4-F)]HK[ΔZArg]K-{NH(CH2)4NH2}) | ++ (≤8 μg/mL) | ++ (≤8 μg/mL) | + (≤32 μg/mL) | − (>32 μg/mL)
8 | C[C@H](NC(=O)[C@@H](NC(=O)[C@@H](N)CCCCN)[C@@H](O)CN)C(=O)NCC(=O)N[C@H](CCCN)C(=O)N1CCC[C@H]1C(=O)N[C@@H](Cc1cccc(C(F)(F)F)c1)C(=O)N[C@@H](CCCCN)C(=O)N/C(=C\CCNC(=N)N)C(=O)O [24.87] (H-K[Dab(3S-OH)]AG[dOrn]P[Phe(3-CF3)]K[ΔZArg]-OH) | − (>32 μg/mL) | ++ (≤8 μg/mL) | + (≤32 μg/mL) | − (>32 μg/mL)
9 | C[C@H](NC(=O)[C@@H](NC(=O)[C@@H](N)CCCCN)[C@@H](O)CN)C(=O)NCC(=O)N[C@H](CCCN)C(=O)N1CCC[C@H]1C(=O)N[C@@H](Cc1ccccc1Cl)C(=O)N[C@@H](CCCCN)C(=O)N/C(=C\CCNC(=N)N)C(=O)O [24.80] (H-K[Dab(3S-OH)]AG[dOrn]P[Phe(2-Cl)]K[ΔZArg]-OH) | − (>32 μg/mL) | ++ (≤8 μg/mL) | + (≤32 μg/mL) | − (>32 μg/mL)
10 | COC(=O)/C(=C/CCNC(=N)N)NC(=O)[C@H](CCCCN)NC(=O)[C@H](Cc1cnc[nH]1)NC(=O)[C@@H]1CCCN1C(=O)[C@@H](CCCN)NC(=O)CNC(=O)[C@H](C)NC(=O)[C@@H](NC(=O)[C@@H](N)CCCCN)[C@@H](O)CN [24.160] (H-K[Dab(3S-OH)]AG[dOrn]PHK[ΔZArg]-OMe) | − (>32 μg/mL) | ++ (≤8 μg/mL) | ++ (≤8 μg/mL) | − (>32 μg/mL)
11 | C[C@H](NC(=O)[C@H](CCN)NC(=O)[C@@H](N)CCCCN)C(=O)NCC(=O)N[C@H](CCCN)C(=O)N1CCC[C@H]1C(=O)N[C@@H](Cc1cnc[nH]1)C(=O)N[C@@H](CCCCN)C(=O)N/C(=C\CCNC(=N)N)C(=O)NCCCCCN [14.20] (H-K[Dab]AG[dOrn]PHK[ΔZArg]-{NH(CH2)5NH2}) | − (>32 μg/mL) | + (≤32 μg/mL) | − (>32 μg/mL) | − (>32 μg/mL)
12 | C[C@H](NC(=O)/C(=C/CCNC(=N)N)NC(=O)[C@H](CCCCN)NC(=O)[C@H](Cc1cnc[nH]1)NC(=O)[C@@H]1CCCN1C(=O)[C@@H](CCCN)NC(=O)CNC(=O)[C@H](C)NC(=O)[C@@H](NC(=O)[C@@H](N)CCCCN)[C@@H](O)CN)C(N)=O [24.7] (H-K[Dab(3S-OH)]AG[dOrn]PHK[ΔZArg]A-NH2) | − (>32 μg/mL) | ++ (≤8 μg/mL) | ++ (≤8 μg/mL) | − (>32 μg/mL)
13 | CCOC(=O)[C@H](CCCCN)NC(=O)/C(=C/CCNC(=N)N)NC(=O)[C@H](CCCCN)NC(=O)[C@H](Cc1cnc[nH]1)NC(=O)[C@@H]1CCCN1C(=O)[C@@H](CCCN)NC(=O)CNC(=O)[C@@H](NC(=O)[C@@H](NC(=O)[C@@H](N)CCCCN)[C@@H](O)CN)[C@@H](O)CN [22.28] (H-K[Dab(3S-OH)][Dab(3S-OH)]G[dOrn]PHK[ΔZArg]K-OEt) | − (>32 μg/mL) | ++ (≤8 μg/mL) | + (≤32 μg/mL) | − (>32 μg/mL)
14 | N=C(N)NCC/C=C(\NC(=O)[C@H](CCCCN)NC(=O)[C@H](Cc1ccccc1F)NC(=O)[C@@H]1CCCN1C(=O)[C@@H](CCCN)NC(=O)CNC(=O)[C@@H](NC(=O)[C@@H](NC(=O)[C@@H](N)CCCCN)[C@@H](O)CN)[C@@H](O)CN)C(=O)O [22.33] (H-K[Dab(3S-OH)][Dab(3S-OH)]G[dOrn]P[Phe(2-F)]K[ΔZArg]-OH) | − (>32 μg/mL) | ++ (≤8 μg/mL) | ++ (≤8 μg/mL) | − (>32 μg/mL)
15 | N=C(N)NCC/C=C(\NC(=O)[C@H](CCCCN)NC(=O)[C@H](Cc1cnc[nH]1)NC(=O)[C@@H]1CCCN1C(=O)[C@@H](CCCN)NC(=O)CNC(=O)[C@H](NC(=O)[C@@H](NC(=O)[C@@H](N)CCCCN)[C@@H](O)CN)[C@H](O)CN)C(=O)N[C@@H](CCCCN)C(=O)NCCCCN [22.32] (H-K[Dab(3S-OH)][X6]G[dOrn]PHK[ΔZArg]K-{NH(CH2)4NH2}) | − (>32 μg/mL) | ++ (≤8 μg/mL) | − (>32 μg/mL) | − (>32 μg/mL)
16 | C[C@H](NC(=O)[C@@H](NC(=O)[C@@H](N)CCCCN)[C@@H](O)CN)C(=O)NCC(=O)N[C@H](CCCN)C(=O)N1CCC[C@H]1C(=O)N[C@@H](CCC(N)=O)C(=O)N[C@@H](CCCCN)C(=O)N/C(=C\CCNC(=N)N)C(=O)O [24.117] (H-K[Dab(3S-OH)]AG[dOrn]PQK[ΔZArg]-OH) | − (>32 μg/mL) | + (≤32 μg/mL) | − (>32 μg/mL) | − (>32 μg/mL)
